For this data set, the target named is IRF4. The following applies: ASO.

“And” between values parts separate entries of the source, which are not always exact repeats. Equal entries are not always repeated. After the bases stand the sugars from the 5' end (letter, count) and the backbone: PS all phosphorothioate, else s phosphorothioate and o phosphodiester by linkage. Methylation of C is not given here. e = 2'-O-(2-methoxyethyl) (MOE); k = constrained ethyl (cEt); d = 2'-deoxy (DNA)

For GTTGTCTGGCTAGCAG (sugars k3 d10 k3, PS), the target mRNA inhibition is, setting by setting: (SK-MEL-28, 0.185 µM) 20%; (SK-MEL-28, 4 µM) 59%; (SK-MEL-28, 5 µM) 70%; (SK-MEL-28, 15 µM) 89%.

Consider TTCCAGGTCATTTGAC (sugars k3 d10 k3, PS), for which the target mRNA inhibition is, setting by setting: (MM.1R, 0.074 µM) 2%; (MM.1R, 0.222 µM) 3%; (MM.1R, 0.666 µM) 9%; (MM.1R, 2 µM) 27%; (SK-MEL-28, 4 µM) 66%.

As for GGCGCGGACGCACGGA (sugars k3 d10 k3, PS), the target mRNA inhibition (MM.1R, 1 µM) is 10%.

Consider AGCTGACCATGTTACA (sugars k3 d10 k3, PS), for which the target mRNA inhibition (SK-MEL-28, 4 µM) was -19%.

Take TTAGGATAATATACCC (sugars k3 d10 k3, PS): the target mRNA inhibition (SK-MEL-28, 4 µM) was 52%.

On to CCCTTAGGAACGAAGA (sugars k3 d10 k3, PS), for which the target mRNA inhibition (SK-MEL-28, 4 µM) is -6%.

For GGATAACCTGAACATG (sugars k3 d10 k3, PS), the target mRNA inhibition (MM.1R, 1 µM) was 9%.

AAAACAGCCGCCGGCA (sugars k3 d10 k3, PS): the target mRNA inhibition (MM.1R, 1 µM) is -9%.

With “CAGTGACTTGCATCCA (sugars kddddddddddkekek, PS)”, the target mRNA inhibition (MM.1R, 1 µM) amounted to 29%.

Regarding TACCTCAGTTTGTGAA (sugars k3 d10 k3, PS), the target mRNA inhibition (MM.1R, 1 µM) worked out at 11%.

With TCTAATAAATGTGCTC (sugars k3 d10 k3, PS), the target mRNA inhibition (SK-MEL-28, 4 µM) turned out to be 44%.

For the sequence CAGTGATGTCAGGTTT (sugars k3 d10 k3, PS), the target mRNA inhibition runs as follows: (MM.1R, 0.074 µM) 22%; (MM.1R, 0.222 µM) 39%; (MM.1R, 0.666 µM) 62%; (MM.1R, 1 µM) 62%; (MM.1R, 2 µM) 85%.

On to TGCCGCTGTCGATCTG (sugars k3 d10 k3, PS), for which the target mRNA inhibition (SK-MEL-28, 4 µM) worked out at 32%.

As for GAGCAAAGCAAGTGTC (sugars k3 d10 k3, PS), for the setting “SK-MEL-28, 4 µM”, the target mRNA inhibition worked out at 42%.

For the sequence CAAGCTGGGCCTTGCC (sugars k3 d10 k3, PS), for the setting “SK-MEL-28, 4 µM”, the target mRNA inhibition amounted to 34%.

For “GACACTTTTAGAGAGG (sugars kdddddddddkekeke, PS)”, under “MM.1R, 1 µM”, the target mRNA inhibition amounted to 9%.

For the sequence “CAAGCAGTGATGTCAG (sugars kdddddddddkekeke, PS)”, the target mRNA inhibition (MM.1R, 1 µM) is 10% and 12%.

As to “GAAGCATTTTATCATC (sugars e1 k2 d9 k2 e2, PS)”, the target mRNA inhibition (MM.1R, 1 µM) amounted to 1%.

As for TGACACAGGAGCCGCT (sugars k3 d10 k3, PS), under “MM.1R, 1 µM”, the target mRNA inhibition came out at 15%.

Turning to ACTAAGCTTGATAAAG (sugars k3 d10 k3, PS), the target mRNA inhibition (MM.1R, 1 µM) was 14% and 5%.

“ATGTGTATTACTCTTA (sugars k2 d9 e3 k2, PS)”: the target mRNA inhibition (MM.1R, 1 µM) is 40% and 44%.

On to AAATGAGTCGGTCACT (sugars k3 d10 k3, PS), for which the target mRNA inhibition (SK-MEL-28, 4 µM) amounted to 55%.

For the sequence ATCTACCTCAGTTTGT (sugars k3 d10 k3, PS), where the note is “SK-MEL-28, 4 µM”, the target mRNA inhibition stood at 42%.

In the case of TAGAAAGAGCTGGTAG (sugars k3 d10 k3, PS), under “SK-MEL-28, 4 µM”, the target mRNA inhibition was 9%.

Take GTAGTCCTGCTTGCCC (sugars k3 d10 k3, PS): under “SK-MEL-28, 4 µM”, the target mRNA inhibition was 44%.

With ATAACCGGTAGAGTGA (sugars k3 d10 k3, PS), where the note is “SK-MEL-28, 4 µM”, the target mRNA inhibition was 50%.

For CTGAAGCTTAGTTATC (sugars k3 d10 k3, PS), where the note is “SK-MEL-28, 4 µM”, the target mRNA inhibition stood at 38%.

Turning to TGGTAGAATGTGATAT (sugars k3 d10 k3, PS), the target mRNA inhibition (SK-MEL-28, 4 µM) was found to be 43%.

Regarding ACTAACAGGGAGACTG (sugars k3 d10 k3, PS), the target mRNA inhibition (MM.1R, 1 µM) was -19%.

As to AGAACGCACGGACGAA (sugars k3 d10 k3, PS), for the setting “MM.1R, 1 µM”, the target mRNA inhibition was determined as 1%.

In the case of CCTCAGGAAATGTCCA (sugars k4 d8 k4, PS), the target mRNA inhibition (SK-MEL-28, 4 µM) was determined as 10%.

With GTTTACACTGGATCTG (sugars k3 d10 k3, PS), for the setting “SK-MEL-28, 4 µM”, the target mRNA inhibition was found to be 61%.

Take CACCAGCCATCGGCAG (sugars k3 d10 k3, PS): the target mRNA inhibition (MM.1R, 1 µM) is -19%.

Take CCCCGCGGTCCCGCTG (sugars k3 d10 k3, PS): where the note is “SK-MEL-28, 4 µM”, the target mRNA inhibition stood at 41%.

As to CCCTATCACTGCCAAG (sugars k3 d10 k3, PS), under “SK-MEL-28, 4 µM”, the target mRNA inhibition was 38%.

As to GTCAAAAAGATGCAGA (sugars k3 d10 k3, PS), the target mRNA inhibition (SK-MEL-28, 4 µM) is 50%.

For the sequence CCGGAGGCCGCCGTGA (sugars k3 d10 k3, PS), the target mRNA inhibition (SK-MEL-28, 4 µM) is 13%.

Take “GTGTGCTTGCCAAGCC (sugars kkdddddddddkekek, PS)”: for the setting “MM.1R, 1 µM”, the target mRNA inhibition was 41% and 39%.

For TCAAATCTTCAACAGC (sugars k3 d10 k3, PS), under “SK-MEL-28, 4 µM”, the target mRNA inhibition was 76%.

With AGAGGAATGAGCACTC (sugars k3 d10 k3, PS), the target mRNA inhibition (MM.1R, 1 µM) was determined as 5%.

Turning to GTTGTAGTCCTGCTTG (sugars k3 d10 k3, PS), under “SK-MEL-28, 4 µM”, the target mRNA inhibition worked out at 22%.

In the case of “TACTGCTTGAGGTTTT (sugars kddddddddddkekek, PS)”, the target mRNA inhibition (MM.1R, 1 µM) was determined as 24%.

For the origin of these results see the OligoGym collection.
